Legend:
[1] = test system: primed hPSCs; assay: Conversion of hPSCs from primed to naive pluripotency (Nanog+ cells among hNA+ human cells, dome-shaped colonies); assay type: cell-based; details: for effect of removal of the component from 2iLI medium on Nanog+ cells and mESC-like colonies: primed H9 after Torin1 3 hr, 5 days culture on MEF
Procedure: Primed hPSCs were treated with 10 μM ROCK inhibitor Y27632 (Abcam) overnight in hESC medium. After being washed twice in phosphate-buffered saline (PBS), primed hPSCs were cultured in 2iLI medium with 10 μM Torin1 (Tocris) for 3 hours. 2iLI medium contained 50% glucose-free DMEM/F12 (Life Technologies) and 50% glucose-free Neurobasal (Life Technologies), 5 mM glucose, 1 mM glutamine, 1% NEAA, 0.1 mM […], 100 U/ml penicillin, 100 μg/ml streptomycin, 5 mg/mL bovine serum albumin (Sigma) to maintain osmolarity, 20 ng/mL recombinant human LIF (Millipore), […] human insulin (Sigma), 1 μM PD0325901 (PD, EMD Millipore), and 3 μM CHIR99021 (CH, Stemgent). For N004 iPSCs, 2iLI medium with 0.8 μM CHIR99021 was used instead. Then hPSCs were trypsinized into single cells using TrypLE (Life Technologies) for 5 min at 37° C. The single cells were plated on MEF feeders (5-6×10^4/cm^2) in 2iLI medium (without Torin1), which was changed daily. Small, bright, dome-shaped colonies appeared in 4-5 days and were picked manually at day 5-7 for dissociation by TrypLE into single cells, which were plated on fresh MEF cells. After several manual passages, mouse ESC-like colonies were uniformly seen and passaged every 3 days with TrypLE and maintained in 2iLI media (without Torin1). Immunostaining was performed using standard protocol to detect various antigens in cultured cells or frozen tissue sections. Briefly, cells or tissue sections were fixed in 4% paraformaldehyde (Sigma) for 20 min, treated with 0.1% Triton X-100 for 15 min at room temperature for permeabilization, blocked in 3% BSA for 1 hour at room temperature, and then incubated with the indicated primary antibodies (Table S1) overnight at 4° C. and secondary antibodies for 1 h at 37° C. Secondary antibodies were AlexaFluor 488, 594, and 647 (1:1,000, Thermo fisher Scientific). Alkaline phosphatase (AP) staining was performed using the Alkaline Phosphatase Kit (Millipore). Diaminobenzidine (DAB) staining was also used to detect GFP expression in frozen embryo sections according to manufacturer's protocol (Vector Laboratories). Briefly, the frozen sections on slides were thawed at room temperature for 5 min. Then the slides were treated with 0.3% H2O2 solution in PBS at room temperature for 10 min to block endogenous peroxidase activity, and then treated with 3% BSA for 45 min for blocking. The sections were incubated with primary antibody (anti-GFP) in 0.1% BSA for 30 min at room temperature, rinsed briefly in PBS 3 times (5 min each), and then incubated with biotinylated secondary antibody for 30 min followed by PBS rinsing for 3 times (5 min each). The sections were incubated with VECTASTAIN ABC reagent (Vector Laboratories) for 30 min, washed with PBS for 5 min. The sections were incubated with 100 μl peroxidase substrate solution (Sigma, D4293) on the slide under microscope until desired staining intensity and then washed with PBS to remove the substrate solution. For live imaging of mitochondria, primed or naive hPSCs were incubated in prewarmed hESC medium (for primed hPSCs) or 2iLI medium (for naive hPSCs) containing 50 nM MitoTracker Green FM or 100 nM TMRE (Life Technologies) for 15 min at 37° C. Then the staining medium was replaced with the corresponding prewarmed medium without dyes. Cells were then imaged on a Leica DMI6000B fluorescence microscope. Quantification of LC3II puncta was performed using NIH ImageJ with the AUTOCOUNTER pluggin, which calculates the percentage of cell area covered by LC3II puncta.

[2] = test system: TFE3; assay: Torin1/rapamycin-induced nuclear translocation of TFE3 (immunostaining); assay type: cell-based, human; details: primed H9 hESCs; inhibition of mTor
Procedure: We named this medium 2iLI.
(§1) Immunostaining was performed using standard protocol to detect various antigens in cultured cells or frozen tissue sections. Briefly, cells or tissue sections were fixed in 4% paraformaldehyde (Sigma) for 20 min, treated with 0.1% Triton X-100 for 15 min at room temperature for permeabilization, blocked in 3% BSA for 1 hour at room temperature, and then incubated with the indicated primary antibodies (Table S1) overnight at 4° C. and secondary antibodies for 1 h at 37° C. Secondary antibodies were AlexaFluor 488, 594, and 647 (1:1,000, Thermo fisher Scientific). Alkaline phosphatase (AP) staining was performed using the Alkaline Phosphatase Kit (Millipore). Diaminobenzidine (DAB) staining was also used to detect GFP expression in frozen embryo sections according to manufacturer's protocol (Vector Laboratories). Briefly, the frozen sections on slides were thawed at room temperature for 5 min. Then the slides were treated with 0.3% H2O2 solution in PBS at room temperature for 10 min to block endogenous peroxidase activity, and then treated with 3% BSA for 45 min for blocking. […] Cells were then imaged on a Leica DMI6000B fluorescence microscope. Quantification of LC3II puncta was performed using NIH ImageJ with the AUTOCOUNTER pluggin, which calculates the percentage of cell area covered by LC3II puncta.

[3] = test system: primed H9 hESCs; assay: Autophagy by costaining for LC3 and Lamp1 (LC3II puncta); assay type: cell-based, human
Procedure: as §1

CNC(=O)c1ccccc1Oc1nc(Nc2cc(OC)c(OC)c(OC)c2)ncc1Br [SBI-0206965]
effect on primed-to-naive conversion of blocking autophagy ([1]; primed H9 treated 3 hr, with 2iLI and Torin1, Nanog+ of hNA+ cells after five days): not significantly affected

O=C(NOC[C@H](O)CO)c1ccc(F)c(F)c1Nc1ccc(I)cc1F [PD, PD0325901]
effect of removal of the component from 2iLI medium on Nanog+ cells and mESC-like colonies [1]: drastically reduced Nanog^+ cells and mESC-like colonies

CCC(=O)N1CCN(c2ccc(-n3c(=O)ccc4cnc5ccc(-c6cnc7ccccc7c6)cc5c43)cc2C(F)(F)F)CC1 [Torin1]
translocation of TFE3 from cytoplasm to nucleus [2]: induced rapid translocation of TFE3 from cytoplasm to nucleus | conversion of hPSCs from primed to naive pluripotency ([1]; transient treatment (10 μM for 3 hr) in 2iLI medium, 5 mM glucose, 5% O2): converted hPSCs from primed to naive pluripotency | induction of autophagy, combined treatment ([3]; 2iLI medium with 5 mM glucose and 10 μM Torin1 for 3 hr): induced autophagy most prominently | induction of autophagy ([3]; primed H9 in hESC medium, mTor inhibition for 3 hr): induced autophagy

human LIF: recombinant human Leukemia Inhibitory Factor, component of 2iLI medium
effect of removal of the component from 2iLI medium on Nanog+ cells and mESC-like colonies [1]: drastically reduced Nanog^+ cells and mESC-like colonies

Cc1c[nH]c(-c2cnc(NCCNc3ccc(C#N)cn3)nc2-c2ccc(Cl)cc2Cl)n1 [CHIR99021]
optimized concentration for conversion of N004 iPSCs to naive state ([1]; N004 iPSCs, all other conditions as in 2iLI medium, percentage of human cells positive for Nanog): 0.8 µM | effect of removal of the component from 2iLI medium on Nanog+ cells and mESC-like colonies [1]: drastically reduced Nanog^+ cells and mESC-like colonies

human insulin: human insulin, component of 2iLI medium
percentage of Nanog+ cells among all human cells (hNA+) on replacing N2 and B27 supplements ([1]; primed H9, Torin1 10 μM 3 hr, human insulin 18 μg/ml, about 5 days on MEF feeders): much higher percentage of Nanog^+ cells | effect of removal of the component from 2iLI medium on Nanog+ cells and mESC-like colonies [1]: drastically reduced Nanog^+ cells and mESC-like colonies
